Results published in patent US20220355283A1, “DRUG, DRUG MANUFACTURING METHOD, AND WATER PURIFICATION METHOD” (priority 2019, published 2022).
Where two headings read alike, the source gives them in different places.

Test: Lewis acidity measurement method (1): rate constant for the reaction between CoTPP and oxygen in the presence of a Lewis acid
Format: physicochemical
[1] = rate constant for reaction between CoTPP and oxygen in presence of the Lewis acid, MeCN, room temperature

| Molecule | kcat, M^−2 s^−1 | kcat, M^−2 s^−1 [1] |
| --- | --- | --- |
| CCCC[N+](CCCC)(CCCC)CCCC.F[P-](F)(F)(F)(F)F [tetrabutylammonium hexafluorophosphate] | >0.1 M^−2 s^−1 | – |
| benzalkonium chloride | – | 0.18 M^−2 s^−1 |
| benzethonium chloride | – | 0.24 M^−2 s^−1 |
